In brackets after ≈: the same amount, converted by molar mass. Like-named read-outs stand apart in the source and are kept apart here.
Experiments:
[1] = tested on: Norovirus GT1; assay: Norovirus GT1 antiviral screening in HG23; type: cell-based
[2] = Cytotoxicity (CC50) in HG23, norovirus screening; type: cell-based; conditions: human, HG23 cells; HG23, norovirus screen
[3] = tested on: SARS Coronavirus Urbani; assay: microbe, parasite or virus in culture; type: cell-based; conditions: Severe acute respiratory syndrome-related coronavirus, Vero 76
[4] = in vitro; conditions: African green monkey
[5] = 6 day q.d. intraperitoneal toxicology in mice; type: in vivo
Description: Alternatively, drug delivery by aerosol (nasal spray) administration may immediately achieve therapeutic levels of drug in the nasal mucosa and the brain.

[6] = tested on: CHIK virus; assay: Mouse model of Chikungunya infection; conditions: CHIKV challenged mice, 25 or 35 mg/kg i.p.
[7] = tested on: VEE virus; assay: organism not typed; type: cell-based; conditions: Vero
[8] = Rodent pharmacokinetic experiment in mice; type: in vivo, DBA-1J mice; conditions: female, DBA-1J, mouse, plasma, after IV dosing, read-out: plasma T1/2 (converted)
[9] = tested on: CEM cells; assay: Cytotoxicity profile, selectivity index in CEM cells; type: cell-based; conditions: CEM cells (low of range)
[10] = rat, in vivo, po, 50 mg/kg
[11] = tested on: CHIKV
[12] = Rodent pharmacokinetic experiment in mice; type: in vivo, DBA-1J mice; conditions: for concentration at 24 hr: read-out: 24 hr plasma levels
Experimental: DBA-1J mice (6-8 weeks old, female) were acclimated for ≥2 days after receipt. Mice were weighed the day before dosing to calculate dosing volumes. Mice were dosed by oral gavage with drug at 30 mg/kg, 100 mg/kg & 300 mg/kg. The mice were sampled at […] time points: 0.5, 1, 2, 3, 4, 8 and 24 hrs (3 mice per time point for test drug). The mice were euthanized and their organs were collected (see below). In order to collected blood, mice with euthanized by CO2 at the appropriate time point listed above. Blood was obtained by cardiac puncture (0.3 ml) at each time point. Following blood collection, the organs were removed from the mice (see below). The blood was processed by inverting Li-Heparin tube with blood gently 2 or 3 times to mix well. The tubes were then placed in a rack in ice water until able to centrifuge (≤1 hour). As soon as practical, the blood was centrifuged at ˜2000×g for 10 min in a refrigerated centrifuge to obtain plasma. Then, using a 200 μL pipette, the plasma was transferred to a labeled 1.5 ml Eppendorf tube in ice water. The plasma was then frozen in freezer or on dry ice. The samples were stored at −80° C. prior to analysis. Organs were collected from euthanized mice. The organs (lungs, liver, kidney, spleen and heart) were removed, placed in a tube, and immediately frozen in liquid nitrogen. The tubes were then transferred to dry ice. The samples were saved in cryogenic tissue vials. Samples were analyzed by LC-MS/MS using an ABSCIEX 5500 QTRAP LC-MS/MS system with a Hypercarb (PGC) column.

[13] = in vivo; conditions: male, SD, rat, po, 50 mg/kg

O=c1nc(NO)ccn1[C@@H]1O[C@H](CO)C(O)C1O (stereo partly drawn) [drawing 68]
EC50 [1]: > 100 µg/mL | CC50 [2]: > 100 µg/mL | EC50 [3]: < 0.1 µg/mL | CC50 [4]: 36 µg/mL (≈ 139 µM)

CC1(O)C(O)[C@@H](CO)O[C@H]1n1ccc(NO)nc1=O (stereo partly drawn)
EC50 [1]: > 100 µg/mL | CC50 [2]: > 100 µg/mL | EC50 [3]: > 100 µg/mL | CC50 [4]: > 100 µg/mL

O=c1nc(NO)ccn1[C@@H]1O[C@H](CO)[C@H](O)C1O (stereo partly drawn) [EIDD-01931, 1-(3,4-dihydroxy-5-(hydroxymethyl)tetrahydrofuran-2-yl)-4-(hydroxyamino)pyrimidin-2-one]
NOEL (NO Effect Level) ([5]; 6 day q.d. IP injections): 33 mg/kg | body weight effect ([5]; highest dose tested (100 mg/kg) IP q.d., reversed on cessation of dosing): weight loss was observed | CHIKV RNA copies by PCR (FIG. 8) ([6]; after 7 days): reduction of CHIKV RNA copies | footpad swelling (FIG. 7) ([6]; daily for 7 days): reduction in footpad swelling | EC50 [7]: 1000 nM | half-life [8]: 2.2 h | selectivity index [9]: 8 | tissue distribution (brain, lung, spleen, kidney and liver) [10]: well distributed into all tissues tested | CC50 [11]: > 500000 nM | Bioavailability (versus I.P. delivery) ([12]; PO 30 mg/kg): 65% | Bioavailability (versus I.P. delivery) ([12]; PO 100 and 300 mg/kg): 39-46% | Cmax ([12]; female, DBA-1J, mouse, plasma, PO 30 mg/kg): 3 ng/mL | Cmax ([12]; female, DBA-1J, mouse, plasma, PO 100 mg/kg): 7.7 ng/mL | Cmax ([12]; female, DBA-1J, mouse, plasma, PO 300 mg/kg): 11.7 ng/mL | half-life ([12]; female, DBA-1J, mouse, plasma, after PO dosing, read-out: plasma T1/2): 4.1 to 4.7 h | Tmax ([12]; female, DBA-1J, mouse, plasma, oral gavage, read-out: Tmax after oral dosing): 0.25 to 0.5 h | concentration at 24 hr ([12]; female, DBA-1J, mouse, plasma, oral, 100 mg/kg dose): ~100 nM | concentration at 24 hr ([12]; female, DBA-1J, mouse, plasma, po, 300 mg/kg P.O.): ~400 nM | bioavailability [13]: 28%

From patent US11628181B2, “N4-hydroxycytidine and derivatives and anti-viral uses related thereto” (Emory University, priority 2014, dated 2023)
